Values quoted from earlier work as cited in patent US20100209332A1, “Nonaqueous Chlorine Dioxide-Generating Compositions and Methods Related Thereto” (BASF Catalysts LLC, priority 2009, published 2010).
“And” between values parts separate entries of the source, which are not always exact repeats. Equal entries are not always repeated.

Conditions: sources: † clippercontrols.com URL, § Handbook of Chemistry and Physics, 52nd Ed.

Row | SMILES | Dielectric Constant, at 18-25 deg C.
1 | CC(C)O [Isopropanol] | 18.3 and 20.1
2 | OCC(O)CO [Glycerine] | 42.5^†,§
3 | O [Water] | 80.4 and 78.5
4 | CC(O)CO (stereo not shown) [Propylene glycol] | 32^†,§
5 | CCCCCCCC/C=C\CCCCCCCC(=O)O [Oleic acid] | 2.5^†,§
6 | CCCCCCCC(=O)O [Octanoic acid] | 3.2^†
7 | CCCCO [Butyl alcohol] | 17.1-17.8^†,§
